Earlier results in US20130171256A1 (CIMA LABS Inc., priority 2010, published 2013).

Tests used:
Conditions in all cases: preclinical studies
[1] = test system: neuronal norepinephrine reuptake
dopamine reuptake = test system: dopamine reuptake
[2] = test system: neuronal serotonin reuptake

| Structure (SMILES) | inhibition of neuronal norepinephrine reuptake [1] | inhibition of dopamine reuptake (dopamine reuptake) | inhibition of neuronal serotonin reuptake [2] |
| --- | --- | --- | --- |
| CN(C)CC(c1ccc(O)cc1)C1(O)CCCCC1 (centres unmarked) [O-desmethylvenlafaxine] | potent inhibitors | weak inhibitors | potent inhibitors |
| COc1ccc(C(CN(C)C)C2(O)CCCCC2)cc1 (centres unmarked) [Venlafaxine] | potent inhibitors | weak inhibitors | – |
